From PubChem BioAssay AID2060497 (Molecular Pharmacology Branch, DTP, NCI, 2025)

System: 317291-083-R-J1-PDC complex spheroids, viability
Experiment: Anticancer human tumor 317291-083-R-J1-PDC patient-derived soft tissue sarcoma cell line growth inhibition [GQUAD]
Settings: for IC50: curve of first compound; for viability, T/C: stronger effect = lower value
Source text: DNA G-quadruplex Stabilizer Agents in Combinations in Complex Spheroids
A high-throughput screen of multi-cell type tumor spheroids was designed to identify active combinations of DNA G-quadruplex stabilizer agents and targeted small molecules. Complex spheroids include a stromal component modeled by human endothelial cells (HUVEC) and fibroblasts modeled by human mesenchymal stem cells (MSCs). The concentration ranges selected for each drug and investigational agent were based upon clinically achievable concentrations if the clinical Cmax of the agent was known.
Compounds. The drugs and investigational agents: pidnarulex (CX-5461; NSC782164), APTO-253 (NSC789042), BRACO-19 (NSC847499), peposertib (NSC802822), ceralasertib (NSC780249), elimusertib (NSC800525), camonsertib (NSC841442), AZD-1390 (NSC803789), olaparib (NSC753686), talazoparib (NSC767125), ART-558 (NSC835418), sotorasib (NSC818433), MRTX-1133 (NSC836407), SN-38 (NSC673596), topotecan (NSC609699), etoposide (NSC141540), doxorubicin (NSC123127), gemcitabine (NSC613327), 5-fluorouracil (NSC19893), paclitaxel (NSC125973), vemurafenib (NSC761431), panobinostat (NSC761190), R-306465 (JNJ-16241199; NSC773264), adavosertib (NSC754352), TP-3654 (NSC805149), carboplatin (NSC241240), KSQ-4279 (NSC840948), and staurosporine (NSC755774) were obtained from the National Cancer Institute (NCI) Developmental Therapeutics Program Chemical Repository (34). The FDA-approved anticancer drug set is available from the NCI Developmental Therapeutics Program. […] The stock solutions were prepared in dimethyl sulfoxide (DMSO, Sigma-Aldrich, St. Louis, MO, cat. D2650) at 800-fold the tested concentration and stored at -70 degrees C prior to their use. All drugs and investigational agents were tested over a range starting from a high concentration at or near the clinical Cmax and decreasing in half-log increments. If the clinical Cmax for an agent had not been determined, the highest concentration tested was 10 microM.
2.3 Cell Culture. All cells were maintained in an incubator at 37 degrees C and 5% CO2 with 95% humidity. The PDC lines were cultured according to standard operating procedures established by the NCI PDMR. All PDCs were thawed and cultured in Matrigel-coated flasks prepared with a working solution of 1X Ham's F-12 nutrient mix, without supplementation (Invitrogen, cat. 11765054), 100 U/mL penicillin-streptomycin (Invitrogen, cat. 15140122), and 2.5% Matrigel (Corning Inc., cat. 354248) for the first three passages. The 857933-349-R-J2-PDC line was cultured in 6C/Colon 1B media, which includes advanced DMEM/F-12 (Thermo Fisher Scientific, cat. 12634028), 10 mM HEPES (Thermo Fisher Scientific, cat. 15630080), 1X GlutaMAX supplement (Thermo Fisher Scientific, cat. 35050061), 0.1 mg/mL primocin (InvivoGen, cat. ant-pm-2), 10% defined fetal bovine serum, heat inactivated (HyClone Laboratories Inc., cat. SH30070.03HI), 50% L-WRN conditioned media (ATCC, cat. CRL-3276), 1.25 mM N-Acetyl-L-cysteine (Sigma-Aldrich, cat. A9165), 10 mM nicotinamide (Sigma-Aldrich, cat. N0636), 1X B-27 supplement (Thermo Fisher Scientific, cat. 17504044), 1X N-2 supplement (Thermo Fisher Scientific, cat. 17502048), 10 microM Y-27632 dihydrochloride (Tocris Bioscience, cat. 1254), and 50 ng/mL human EGF recombinant protein (Thermo Fisher Scientific, cat. PHG0311). The 485176-168-R4-J1-PDC line was cultured in Panc media, which includes all 6C/Colon 1B media components plus 100 ng/mL human FGF-10 (Thermo Fisher Scientific, cat. 100-26), 500 nM SB-431542 (Selleckchem, cat. S1067), and gastrin (Tocris, cat. 3006).
[…]
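Also: spheroids exposed to compounds for one week before readout.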
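For viability, T/C in this document: percent viability relative to DMSO vehicle wells taken as 100%.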

Structure (SMILES): CC[C@@]1(O)C(=O)OCc2c1cc1n(c2=O)Cc2cc3c(CN(C)C)c(O)ccc3nc2-1 + Cc1cnc(CNC(=O)c2c(=O)c3ccc(N4CCCN(C)CC4)nc3n3c2sc2ccccc23)cn1
- IC50 (second compound 0.0316 µM): 35.5 nM
- IC50 (second compound 0.1 µM): 19 nM
- IC50 (second compound 0.316 µM): < 0.999 nM
- IC50 (second compound 1 µM): < 0.999 nM
- IC50 (second compound 3.16 µM): < 0.999 nM
- IC50 (second compound 10 µM): < 0.999 nM
- viability, T/C (second compound 0.0316 µM, first compound 0.000999 µM): 86.2%
- viability, T/C (second compound 0.0316 µM, first compound 0.00316 µM): 93.8%
- viability, T/C (second compound 0.0316 µM, first compound 0.00999 µM): 91.7%
- viability, T/C (second compound 0.0316 µM, first compound 0.0316 µM): 53.3%
- viability, T/C (second compound 0.0316 µM, first compound 0.0999 µM): 20.8%
- viability, T/C (second compound 0.0316 µM, first compound 0.316 µM): 15.8%
- viability, T/C (second compound 0.1 µM, first compound 0.000999 µM): 71%
- viability, T/C (second compound 0.1 µM, first compound 0.00316 µM): 80.7%
- viability, T/C (second compound 0.1 µM, first compound 0.00999 µM): 78.1%
- viability, T/C (second compound 0.1 µM, first compound 0.0316 µM): 29%
- viability, T/C (second compound 0.1 µM, first compound 0.0999 µM): 21.9%
- viability, T/C (second compound 0.1 µM, first compound 0.316 µM): 12.8%
- viability, T/C (second compound 0.316 µM, first compound 0.000999 µM): 43.5%
- viability, T/C (second compound 0.316 µM, first compound 0.00316 µM): 52.9%
- viability, T/C (second compound 0.316 µM, first compound 0.00999 µM): 28.2%
- viability, T/C (second compound 0.316 µM, first compound 0.0316 µM): 20.7%
- viability, T/C (second compound 0.316 µM, first compound 0.0999 µM): 17.3%
- viability, T/C (second compound 0.316 µM, first compound 0.316 µM): 9.62%
- viability, T/C (second compound 1 µM, first compound 0.000999 µM): 35.7%
- viability, T/C (second compound 1 µM, first compound 0.00316 µM): 28.2%
- viability, T/C (second compound 1 µM, first compound 0.00999 µM): 25.6%
- viability, T/C (second compound 1 µM, first compound 0.0316 µM): 20.1%
- viability, T/C (second compound 1 µM, first compound 0.0999 µM): 14.7%
- viability, T/C (second compound 1 µM, first compound 0.316 µM): 15.3%
- viability, T/C (second compound 3.16 µM, first compound 0.000999 µM): 39.7%
- viability, T/C (second compound 3.16 µM, first compound 0.00316 µM): 37.8%
- viability, T/C (second compound 3.16 µM, first compound 0.00999 µM): 16.1%
- viability, T/C (second compound 3.16 µM, first compound 0.0316 µM): 14.7%
- viability, T/C (second compound 3.16 µM, first compound 0.0999 µM): 13.4%
- viability, T/C (second compound 3.16 µM, first compound 0.316 µM): 7.16%
- viability, T/C (second compound 10 µM, first compound 0.000999 µM): 28.9%
- viability, T/C (second compound 10 µM, first compound 0.00316 µM): 30.3%
- viability, T/C (second compound 10 µM, first compound 0.00999 µM): 45.9%
- viability, T/C (second compound 10 µM, first compound 0.0316 µM): 19.7%
- viability, T/C (second compound 10 µM, first compound 0.0999 µM): 24%
- viability, T/C (second compound 10 µM, first compound 0.316 µM): 12.2%
